Results from PubChem BioAssay (NCI).
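1) Cells in 96-well plates. 2) Compound, 48 h, 5 concentrations. 3) Linear interpolation between surrounding doses. 4) Unreached endpoint = highest concentration. GI50: concentration for 50% inhibition of growth. Definition used: TGI = concentration required for complete inhibition of growth.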

Tests used:
Experiment in all cases: DTP human tumour cell line panel, 48 h
COLO 205 colon = test system: COLO 205 colon
HCT-15 colon = test system: HCT-15 colon
SK-MEL-28 melanoma = test system: SK-MEL-28 melanoma
NCI/ADR-RES ovarian = test system: NCI/ADR-RES ovarian
M14 melanoma = test system: M14 melanoma
HOP-92 NSCLC = test system: HOP-92 NSCLC
SF-268 CNS = test system: SF-268 CNS
SF-295 CNS = test system: SF-295 CNS
SW-620 colon = test system: SW-620 colon
A549 NSCLC = test system: A549 NSCLC

SMILES	GI50 (COLO 205 colon) [µM]	TGI (COLO 205 colon) [µM]	GI50 (HCT-15 colon) [µM]	TGI (HCT-15 colon) [µM]	GI50 (SK-MEL-28 melanoma) [µM]	TGI (SK-MEL-28 melanoma) [µM]	GI50 (NCI/ADR-RES ovarian) [µM]	TGI (NCI/ADR-RES ovarian) [µM]	GI50 (M14 melanoma) [µM]	TGI (M14 melanoma) [µM]	GI50 (HOP-92 NSCLC) [µM]	TGI (HOP-92 NSCLC) [µM]	GI50 (SF-268 CNS) [µM]	TGI (SF-268 CNS) [µM]	GI50 (SF-295 CNS) [µM]	TGI (SF-295 CNS) [µM]	GI50 (SW-620 colon) [µM]	TGI (SW-620 colon) [µM]	GI50 (A549 NSCLC) [µM]	TGI (A549 NSCLC) [µM]
COc1ccc(/C=C\c2cc(OC)c(OC)c(OC)c2)cc1OC(=O)c1cccc(Cn2cc(CCOC(=O)[C@H](N)Cc3cn(C)c4ccccc34)nn2)c1	0.35	1.55	< 0.01	> 44	2.69	36.1	< 0.01	23.5	< 0.01	16.9	0.206	> 88.2	0.0296	> 100	0.0295	12.5	< 0.01	> 100	0.0322	> 100
O=C1/C(=C/c2ccccc2)CN(C(=O)c2cccnc2)C/C1=C\c1ccccc1	1.55	3.67	0.331	1.38	2.39	6.37	3.03	21.2	1.93	5.17	10.9	23.6	2.78	13.7	1.79	4.23	0.33	1.8	3.1	12.2
Cc1ccccc1N=Nc1ccc(NC(=O)c2ccnn2C)c(C)c1	> 100	> 100	68.4	> 100	> 100	> 100	63.7	> 100	32.4	> 100	6.99	34.9	31.7	> 100	23.9	> 100	> 100	> 100	73.9	> 100
COc1cc(-c2nn(-c3cccc(NC(=O)Nc4cc(C(F)(F)F)cc(C(F)(F)F)c4)c3)cc2-c2ccncc2)ccc1Cl	0.817	1.6	0.756	2.97	0.758	1.94	1.02	7.25	0.826	4.68	0.107	0.64	0.896	2.3	0.241	0.921	0.494	2.94	0.438	2.8
N#Cc1nc2c(S(=O)(=O)c3ccccc3)c(N)n(Cc3cccnc3)c2nc1C#N	> 100	> 100	> 100	> 100	27.8	> 100	92.5	> 100	–	–	4.71	28.5	4.26	22.7	20.5	50.7	> 100	> 100	> 100	> 100
CCn1c(CN2CCN(Cc3ccccc3)CC2)nc2cc(NC(=O)c3cccs3)ccc21	13.5	29.3	14.1	51.6	16	34.3	28.9	> 100	16.9	33.4	12.3	40.3	25.4	97.9	16.7	34.7	17.5	43.4	–	–
NC(N)=N/N=C\c1cccc(OCc2ccccc2)c1	1.78	3.36	3.29	12.9	1.66	3.41	3.85	22.2	–	–	2.05	7.47	10.9	25	4.64	20.4	1.68	3.33	9.2	24.1
CCOc1ccc(-c2nonc2NC(=O)c2cccc(C)c2)cc1OCC	> 100	> 100	> 100	> 100	> 100	> 100	> 100	> 100	–	–	21.1	59.1	90.5	> 100	30.4	> 100	> 100	> 100	> 100	> 100
COc1ccc(-n2nnnc2-c2c[nH]c3c(F)cc(F)cc23)cc1	> 100	> 100	> 100	> 100	> 100	> 100	40.6	> 100	> 100	> 100	–	–	40.3	> 100	24	59.6	> 100	> 100	> 100	> 100
Fc1ccc2c(c1)c(-c1nc(-c3c[nH]c4ncccc34)cs1)cn2CCCN1CCCCC1	1.73	3.48	–	–	1.75	3.26	1.64	3.15	1.76	3.48	1.47	2.95	1.64	3.42	–	–	1.92	3.75	1.91	3.62
Cc1ccc(/C=C2/SC(Nc3nc(-c4csc(NC5=NC(=O)/C(=C\c6ccc(C)cc6)S5)n4)cs3)=NC2=O)cc1	20.2	> 50	–	–	25	> 50	14.3	> 50	1.31	7.74	7.03	24.5	8.98	> 50	6.66	> 50	–	–	7	47.6
C/C(=N\Nc1cc(C)c2cc(C)ccc2n1)c1ccccn1	< 0.0201	1.17	–	1.93	0.135	1.77	0.0666	3.85	0.0684	1.32	–	–	0.047	1.62	–	0.278	–	1.98	< 0.049	1.14
COC(=O)C1=C(C(=O)ON)C2C=CC1(C(Cc1ccccc1)Nc1ccccc1)O2 (configuration not stated)	1.78	3.33	1.73	3.5	1.92	3.66	14.7	36.2	–	–	1.51	2.91	10.5	23	13.8	26.7	–	–	15.2	29.4
O=NNc1ccc(S(=O)(=O)c2ccccc2)cn1	–	> 100	–	> 100	–	> 100	–	> 100	–	> 100	–	–	–	> 100	–	> 100	–	> 100	–	> 100
